Results published in the supplement of paper PMC4862054.

Tests used:
Conditions in all cases: incubation time: 72 h
DU-4475 = experiment: drug sensitivity score (DSS), CellTiter-Glo (DSS (AUC-based score)); higher = stronger drug effect (viability inhibition or cytotoxicity); extreme values may be limits of the assay
Method in brief: (§1)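 Compound was dispensed into 384-well plates at 5 concentrations in 10-fold steps spanning a 10,000-fold range chosen for each compound, and 20 µl of breast cancer cell suspension was added before 72 h of incubation. CellTox Green fluorescence was read at 485/520 nm, followed by CellTiter-Glo luminescence after 10 min at room temperature. Values on each plate were normalised to 0.1 % DMSO and a positive kill control. The drug sensitivity score came from the area under the fitted dose-response curve.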

MDA-MB-231 [1] = experiment: as above
Method in brief: as §1

MCF-10A [2] = experiment: as above
Method in brief: as §1

HDQ-P1 = experiment: as above
Method in brief: as §1

BT-549 = experiment: as above
Method in brief: as §1

CAL-51 = experiment: as above
Method in brief: as §1

BT-474 = experiment: as above
Method in brief: as §1

MDA-MB-453 = experiment: as above
Method in brief: as §1

HCC1143 = experiment: as above
Method in brief: as §1

MDA-MB-468 [3] = experiment: as above
Method in brief: as §1

Hs578T = experiment: as above
Method in brief: as §1

CAL-120 = experiment: as above
Method in brief: as §1

MDA-MB-436 [4] = experiment: as above
Method in brief: as §1

HCC1937 = experiment: as above
Method in brief: as §1

HCC1599 [5] = experiment: as above
Method in brief: as §1

CAL-148 [6] = experiment: as above
Method in brief: as §1

MFM-223 [7] = experiment: as above
Method in brief: as §1

SK-BR-3 = experiment: as above
Method in brief: as §1

CAL-85-1 [8] = experiment: as above
Method in brief: as §1

MDA-MB-231 [9] = experiment: drug sensitivity score (DSS), CellTox Green (DSS (AUC-based score)); higher = stronger drug effect (viability inhibition or cytotoxicity); extreme values may be limits of the assay
Method in brief: as §1

MCF-10A [10] = experiment: as above
Method in brief: as §1

MDA-MB-468 [11] = experiment: as above
Method in brief: as §1

MDA-MB-436 [12] = experiment: as above
Method in brief: as §1

HCC1599 [13] = experiment: as above
Method in brief: as §1

CAL-148 [14] = experiment: as above
Method in brief: as §1

MFM-223 [15] = experiment: as above
Method in brief: as §1

CAL-85-1 [16] = experiment: as above
Method in brief: as §1

Work on `CNC(=O)c1cc(Oc2ccc(NC(=O)Nc3ccc(Cl)c(C(F)(F)F)c3)cc2)ccn1` [Sorafenib] yielded a drug sensitivity score (DU-4475) of 0, a drug sensitivity score (MDA-MB-231 [1]) of 0 and a drug sensitivity score (MCF-10A [2]) of 0. For the same molecule, the drug sensitivity score (HDQ-P1) was 0, the drug sensitivity score (BT-549) was 0 and the drug sensitivity score (CAL-51) was 0. For the same molecule, the drug sensitivity score (BT-474) was 0, the drug sensitivity score (MDA-MB-453) was 0 and the drug sensitivity score (HCC1143) was 0. The drug sensitivity score (MDA-MB-468 [3]) was 0, the drug sensitivity score (Hs578T) was 0 and the drug sensitivity score (CAL-120) was 0. For the same molecule, the drug sensitivity score (MDA-MB-436 [4]) was 0, the drug sensitivity score (HCC1937) was 0 and the drug sensitivity score (HCC1599 [5]) was 0. It also gave a drug sensitivity score (CAL-148 [6]) of 0, a drug sensitivity score (MFM-223 [7]) of 0 and a drug sensitivity score (SK-BR-3) of 0. The drug sensitivity score (CAL-85-1 [8]) was 0, the drug sensitivity score (MDA-MB-231 [9]) was 0 and the drug sensitivity score (MCF-10A [10]) was 0. The drug sensitivity score (MDA-MB-468 [11]) was 0, the drug sensitivity score (MDA-MB-436 [12]) was 0 and the drug sensitivity score (HCC1599 [13]) was 0. The drug sensitivity score (CAL-148 [14]) was 0, the drug sensitivity score (MFM-223 [15]) was 0 and the drug sensitivity score (CAL-85-1 [16]) was 0.
With `CCN(CC)CCNC(=O)c1c(C)[nH]c(/C=C2\C(=O)Nc3ccc(F)cc32)c1C` [Sunitinib] the drug sensitivity score (DU-4475) was 0, the drug sensitivity score (MDA-MB-231 [1]) was 0 and the drug sensitivity score (MCF-10A [2]) was 0. It also gave a drug sensitivity score (HDQ-P1) of 0, a drug sensitivity score (BT-549) of 0 and a drug sensitivity score (CAL-51) of 0. It also gave a drug sensitivity score (BT-474) of 0, a drug sensitivity score (MDA-MB-453) of 0 and a drug sensitivity score (HCC1143) of 0. The drug sensitivity score (MDA-MB-468 [3]) was 0, the drug sensitivity score (Hs578T) was 0 and the drug sensitivity score (CAL-120) was 0. For the same molecule, the drug sensitivity score (MDA-MB-436 [4]) was 0, the drug sensitivity score (HCC1937) was 0 and the drug sensitivity score (HCC1599 [5]) was 0. The drug sensitivity score (CAL-148 [6]) was 0, the drug sensitivity score (MFM-223 [7]) was 0 and the drug sensitivity score (SK-BR-3) was 0. For the same molecule, the drug sensitivity score (CAL-85-1 [8]) was 0, the drug sensitivity score (MDA-MB-231 [9]) was 0 and the drug sensitivity score (MCF-10A [10]) was 0. The drug sensitivity score (MDA-MB-468 [11]) was 0, the drug sensitivity score (MDA-MB-436 [12]) was 0 and the drug sensitivity score (HCC1599 [13]) was 0. For the same molecule, the drug sensitivity score (CAL-148 [14]) was 0, the drug sensitivity score (MFM-223 [15]) was 0 and the drug sensitivity score (CAL-85-1 [16]) was 0.
`CC[C@@]1(O)C(=O)OCc2c1cc1n(c2=O)Cc2cc3c(CN(C)C)c(O)ccc3nc2-1` [Topotecan] gave a drug sensitivity score (DU-4475) of 14.6, a drug sensitivity score (MDA-MB-231 [1]) of 4.13 and a drug sensitivity score (MCF-10A [2]) of 4.97. The drug sensitivity score (HDQ-P1) was 0, the drug sensitivity score (BT-549) was 10.8 and the drug sensitivity score (CAL-51) was 11. The drug sensitivity score (BT-474) was 3.82, the drug sensitivity score (MDA-MB-453) was 5.74 and the drug sensitivity score (HCC1143) was 9.67. For the same molecule, the drug sensitivity score (MDA-MB-468 [3]) was 20.8, the drug sensitivity score (Hs578T) was 1.55 and the drug sensitivity score (CAL-120) was 5.11. The drug sensitivity score (MDA-MB-436 [4]) was 13.6, the drug sensitivity score (HCC1937) was 6.32 and the drug sensitivity score (HCC1599 [5]) was 18.3. It also gave a drug sensitivity score (CAL-148 [6]) of 18.7, a drug sensitivity score (MFM-223 [7]) of 0 and a drug sensitivity score (SK-BR-3) of 14.1. The drug sensitivity score (CAL-85-1 [8]) was 11.1, the drug sensitivity score (MDA-MB-231 [9]) was 10.2 and the drug sensitivity score (MCF-10A [10]) was 1.98. For the same molecule, the drug sensitivity score (MDA-MB-468 [11]) was 8.87, the drug sensitivity score (MDA-MB-436 [12]) was 8.04 and the drug sensitivity score (HCC1599 [13]) was 2.71. For the same molecule, the drug sensitivity score (CAL-148 [14]) was 24.6, the drug sensitivity score (MFM-223 [15]) was 2.66 and the drug sensitivity score (CAL-85-1 [16]) was 7.11.
